# ChEMBL document CHEMBL1201862, “PubChem BioAssay data set” (2004)
# Calls of active or inactive are those of the source.
# Experiments:
# [1] = target: T1, Mannose-6-phosphate isomerase (Homo sapiens, UniProt P34949); test: MPI inhibition at elevated mannose 6-phosphate – biochemical, fluorescence intensity, high mannose 6-phosphate, primary screen (AID 1220)
# T1 sequence (P34949 whole entry): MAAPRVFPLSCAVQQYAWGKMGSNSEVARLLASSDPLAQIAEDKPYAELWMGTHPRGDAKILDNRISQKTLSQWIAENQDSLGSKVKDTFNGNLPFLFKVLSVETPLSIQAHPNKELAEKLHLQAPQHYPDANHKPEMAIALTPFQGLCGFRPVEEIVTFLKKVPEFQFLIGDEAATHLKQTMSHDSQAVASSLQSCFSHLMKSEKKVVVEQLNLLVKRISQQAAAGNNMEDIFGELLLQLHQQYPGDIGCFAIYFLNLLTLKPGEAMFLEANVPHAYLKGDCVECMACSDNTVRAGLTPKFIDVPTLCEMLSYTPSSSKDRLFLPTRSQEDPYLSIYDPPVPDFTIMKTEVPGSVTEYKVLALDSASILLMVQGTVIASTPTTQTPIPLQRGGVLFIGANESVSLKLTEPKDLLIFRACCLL
# Genome polyprotein = Genome polyprotein (dengue virus type 2, UniProt P29990); test: flavivirus cap methylation enzyme inhibition – biochemical, confirmation dose response, primary screen (AID 588689); format: functional
# Chain of Genome polyprotein (P29990 2492-3391 limits assumed): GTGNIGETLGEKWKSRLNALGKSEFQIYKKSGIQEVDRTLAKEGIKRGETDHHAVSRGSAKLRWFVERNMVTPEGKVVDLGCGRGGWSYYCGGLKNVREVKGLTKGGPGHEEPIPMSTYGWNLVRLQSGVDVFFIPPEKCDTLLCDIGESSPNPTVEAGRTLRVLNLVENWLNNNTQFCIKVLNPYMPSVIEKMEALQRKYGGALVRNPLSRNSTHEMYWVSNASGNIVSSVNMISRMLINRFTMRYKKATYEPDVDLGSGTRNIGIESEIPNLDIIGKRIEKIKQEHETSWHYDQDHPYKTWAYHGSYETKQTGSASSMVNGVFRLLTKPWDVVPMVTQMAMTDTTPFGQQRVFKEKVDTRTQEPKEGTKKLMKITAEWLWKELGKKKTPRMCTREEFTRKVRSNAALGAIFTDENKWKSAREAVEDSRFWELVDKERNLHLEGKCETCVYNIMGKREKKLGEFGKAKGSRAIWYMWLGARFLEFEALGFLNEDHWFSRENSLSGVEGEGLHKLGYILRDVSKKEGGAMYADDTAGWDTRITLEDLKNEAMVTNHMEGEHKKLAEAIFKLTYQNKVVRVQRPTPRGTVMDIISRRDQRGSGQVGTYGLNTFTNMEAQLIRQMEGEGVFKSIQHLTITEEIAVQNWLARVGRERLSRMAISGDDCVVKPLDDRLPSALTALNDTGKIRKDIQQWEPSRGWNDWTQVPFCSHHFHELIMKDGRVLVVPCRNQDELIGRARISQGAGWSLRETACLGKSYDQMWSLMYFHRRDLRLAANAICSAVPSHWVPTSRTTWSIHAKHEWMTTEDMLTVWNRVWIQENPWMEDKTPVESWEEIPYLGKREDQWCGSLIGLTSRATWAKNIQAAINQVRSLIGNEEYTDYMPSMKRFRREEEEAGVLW
# Prothrombin = Prothrombin (Homo sapiens, UniProt P00734); test: Thrombin 1536 HTS Dose Response Confirmation. [Related pubchem assays: 1046 (Thrombin 1536 HTS; hits were confirmed in this assay)]; format: functional
# Coagulation factor XII = target: T2, Coagulation factor XII (Homo sapiens, UniProt P00748); format: functional;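 further: activated factor XIIa alpha cleaving a fluorogenic AMC peptide substrate; inhibitor potency from loss of enzyme activity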
# T2 sequence (P00748 whole entry): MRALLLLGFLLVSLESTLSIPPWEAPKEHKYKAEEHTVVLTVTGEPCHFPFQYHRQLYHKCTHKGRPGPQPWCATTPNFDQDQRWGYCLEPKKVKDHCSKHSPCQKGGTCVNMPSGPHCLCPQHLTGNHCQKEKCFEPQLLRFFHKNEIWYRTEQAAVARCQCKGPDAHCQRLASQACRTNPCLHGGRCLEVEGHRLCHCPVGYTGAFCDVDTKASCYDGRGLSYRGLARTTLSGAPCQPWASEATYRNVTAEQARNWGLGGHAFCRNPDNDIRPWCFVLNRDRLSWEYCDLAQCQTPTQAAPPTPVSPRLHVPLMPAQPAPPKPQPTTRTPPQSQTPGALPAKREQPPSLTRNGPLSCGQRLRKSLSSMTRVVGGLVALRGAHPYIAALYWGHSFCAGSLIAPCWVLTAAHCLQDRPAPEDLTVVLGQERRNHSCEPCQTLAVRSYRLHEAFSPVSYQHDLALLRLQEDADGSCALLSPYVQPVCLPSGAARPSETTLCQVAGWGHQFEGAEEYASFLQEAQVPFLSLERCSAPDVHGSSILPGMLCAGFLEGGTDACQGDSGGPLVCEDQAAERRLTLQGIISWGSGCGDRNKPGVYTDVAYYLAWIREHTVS
# [2] = A cytotoxicity screen of small molecule inhibitors of the PhoP region in Salmonella typhi identified in the primary screen. [Related pubchem assays: 1850, 1864, 1985 ]; format: functional
# [3] = target: Induced myeloid leukemia cell differentiation protein Mcl-1 (Homo sapiens, UniProt Q07820); format: functional
# Chain of Induced myeloid leukemia cell differentiation protein Mcl-1 (Q07820 whole entry): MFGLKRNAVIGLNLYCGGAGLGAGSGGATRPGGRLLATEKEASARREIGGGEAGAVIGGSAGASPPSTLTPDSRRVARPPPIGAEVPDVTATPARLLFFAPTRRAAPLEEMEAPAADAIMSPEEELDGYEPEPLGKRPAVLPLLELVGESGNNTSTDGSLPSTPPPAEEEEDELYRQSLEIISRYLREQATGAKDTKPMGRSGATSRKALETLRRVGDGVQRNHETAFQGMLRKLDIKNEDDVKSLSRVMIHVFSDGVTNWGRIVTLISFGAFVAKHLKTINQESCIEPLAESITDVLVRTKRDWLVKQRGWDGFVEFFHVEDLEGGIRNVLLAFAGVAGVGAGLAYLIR
# [4] = target: T3, E3 ubiquitin-protein ligase XIAP (Homo sapiens, UniProt P98170); test: Counter Screen using XIAP-Bir3 for Chemical Antagonists of Bir1/2 domains of IAP-family anti-apoptotic proteins. [Related pubchem assays (depositor defined):AID1018, AID1449, AID1514, AID1638, AID1749, AID1750, AID488957, AID488963]
# T3 sequence (P98170 whole entry): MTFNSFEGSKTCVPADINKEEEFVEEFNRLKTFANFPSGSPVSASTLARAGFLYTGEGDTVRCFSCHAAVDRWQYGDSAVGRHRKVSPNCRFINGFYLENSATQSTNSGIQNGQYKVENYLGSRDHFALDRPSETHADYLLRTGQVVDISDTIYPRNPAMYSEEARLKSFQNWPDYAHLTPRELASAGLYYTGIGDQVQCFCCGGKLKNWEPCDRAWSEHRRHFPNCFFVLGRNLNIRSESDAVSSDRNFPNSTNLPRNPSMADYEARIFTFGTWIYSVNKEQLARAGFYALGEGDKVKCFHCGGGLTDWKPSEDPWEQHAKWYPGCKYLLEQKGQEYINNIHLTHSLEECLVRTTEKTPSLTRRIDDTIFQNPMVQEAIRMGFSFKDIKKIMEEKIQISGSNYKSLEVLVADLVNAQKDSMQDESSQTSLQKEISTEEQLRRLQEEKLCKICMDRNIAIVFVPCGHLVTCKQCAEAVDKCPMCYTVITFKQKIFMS
# [5] = target: T3, E3 ubiquitin-protein ligase XIAP; test: small molecules displacing peptide from XIAP – biochemical, IAP family, fluorescence polarization (AID 1018); format: functional
# [6] = A Cell Based Secondary Assay To Explore Cytotoxicity of Compounds that Sensitize Mycobacterium Tuberculosis to Beta-Lactam Antibiotics.; format: functional
# [7] = non-specific 3'UTR reporter inhibition in Clone20-Shn3RL – cell-based, Renilla luciferase, cherry-picked, counter-screen for Shn3 inhibitor project, dose response (AID 624133); format: functional
# [8] = loss of viability in HepG2 cells – cell-based, CellTiter-Glo, cherry-picked, cytotoxicity control for Shn3 inhibitor project, dose response (AID 624134); format: functional
# [9] = target: T4, Heat shock factor protein 1 (Mus musculus, UniProt P38532); test: decrease of HSF1-responsive luciferase luminescence – cell-based, NIH3T3, dose retest, confirmation (AID 2382); format: functional;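 further: NIH3T3 fibroblasts with HSF1-driven luciferase reporter stressed by proteasome inhibitor MG132; luminescence from HSF1-driven luciferase expression after 8 hours of MG132 stress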
# T4 sequence (P38532 whole entry): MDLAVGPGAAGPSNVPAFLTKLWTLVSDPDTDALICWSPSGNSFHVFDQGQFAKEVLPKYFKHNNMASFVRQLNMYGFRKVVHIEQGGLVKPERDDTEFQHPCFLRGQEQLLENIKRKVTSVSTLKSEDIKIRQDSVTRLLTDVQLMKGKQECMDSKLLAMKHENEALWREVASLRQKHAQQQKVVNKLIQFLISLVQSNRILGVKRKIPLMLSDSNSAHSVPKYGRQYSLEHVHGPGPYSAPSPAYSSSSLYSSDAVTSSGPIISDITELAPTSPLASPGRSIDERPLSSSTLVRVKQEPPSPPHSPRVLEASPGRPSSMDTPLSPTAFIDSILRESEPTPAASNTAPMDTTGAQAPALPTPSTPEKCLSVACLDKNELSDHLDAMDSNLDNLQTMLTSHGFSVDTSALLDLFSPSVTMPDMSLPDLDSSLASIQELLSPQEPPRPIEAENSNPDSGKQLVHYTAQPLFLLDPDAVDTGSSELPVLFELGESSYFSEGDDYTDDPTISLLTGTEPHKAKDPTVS
# [10] = HEK-293T viability loss after treatment – luminescence, T-cell screen hits, cytotoxicity control for TCR NF-kB inhibitor project, dose response (AID 489026); format: functional, cell-based;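 further: cells exposed to compound about 14 hours before the viability readout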
# [11] = reduction of Shn3 3'UTR-driven luciferase in osteoblasts – cell-based, Clone20 osteoblasts, firefly luciferase, cherry-picked, dose response (AID 624132); format: functional;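 further: firefly luciferase luminescence from reporter carrying the Shn3 3'UTR in osteoblasts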
# INS1 = test: INS-1E survival protection against cytokine death – cell-based, luminescence, retest, dose response (AID 449756); format: functional; settings: Rattus norvegicus;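 further: cell death triggered by IL-1 beta plus TNF-alpha plus IFN-gamma mixture; protective hits raise ATP signal compared with cytokine alone wells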
# [12] = target: T5, Oxysterols receptor LXR-beta (Homo sapiens, UniProt P55055); test: LXR agonists, Gal4 luciferase reporter, dose response, counter-screen for ssDAF-12 agonist project, cell-based, luminescence, HEK293, S. stercoralis campaign (AID 720737); format: functional; settings: read-out: IC50 (the source's name)
# T5 sequence (P55055 whole entry): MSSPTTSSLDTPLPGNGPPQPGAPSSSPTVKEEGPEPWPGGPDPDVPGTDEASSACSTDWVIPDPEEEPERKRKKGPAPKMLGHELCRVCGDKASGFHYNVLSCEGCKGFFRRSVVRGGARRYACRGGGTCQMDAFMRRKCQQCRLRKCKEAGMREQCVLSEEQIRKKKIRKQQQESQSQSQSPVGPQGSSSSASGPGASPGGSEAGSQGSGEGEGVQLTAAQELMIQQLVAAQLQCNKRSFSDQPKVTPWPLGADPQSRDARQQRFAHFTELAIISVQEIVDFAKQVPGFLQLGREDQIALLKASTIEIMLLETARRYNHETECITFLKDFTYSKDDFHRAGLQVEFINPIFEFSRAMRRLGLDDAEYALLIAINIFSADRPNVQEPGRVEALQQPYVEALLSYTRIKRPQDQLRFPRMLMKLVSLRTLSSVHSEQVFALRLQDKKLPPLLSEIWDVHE
# [13] = Luminescence-based cell-based high throughput dose response assay to identify activators of the DAF-12 from the parasite S. stercoralis (ssDAF-12).; format: functional
# HEK293 = test: EBV LMP1 TES2 canonical NF-kB signalling blockers – cell-based, HEK293, luciferase, cherry-pick, dose response (AID 588343); format: functional; settings: Homo sapiens
# [14] = viability loss in THP-1 monocytes – THP-1 cells, cytotoxicity control for Vif-APOBEC3G degradation inhibitor project, dose response (AID 1117359); format: functional; settings: THP-1
# [15] = target: T6, DNA repair protein RAD52 homolog (Homo sapiens, UniProt P43351); format: functional, biochemical
# T6 sequence (P43351 whole entry): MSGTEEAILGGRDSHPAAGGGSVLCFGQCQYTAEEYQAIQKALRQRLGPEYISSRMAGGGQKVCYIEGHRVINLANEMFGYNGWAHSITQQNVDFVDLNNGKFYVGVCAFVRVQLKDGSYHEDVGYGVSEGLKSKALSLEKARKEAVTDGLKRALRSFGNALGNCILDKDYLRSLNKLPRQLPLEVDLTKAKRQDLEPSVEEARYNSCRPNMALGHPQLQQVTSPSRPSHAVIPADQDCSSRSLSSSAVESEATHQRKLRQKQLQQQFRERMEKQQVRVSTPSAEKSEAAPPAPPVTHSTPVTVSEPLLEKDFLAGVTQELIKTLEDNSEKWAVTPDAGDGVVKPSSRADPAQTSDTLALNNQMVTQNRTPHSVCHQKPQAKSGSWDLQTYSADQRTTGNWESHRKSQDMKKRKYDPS
# [16] = Luminescence Cell-Based Dose Retest to Confirm Inhibitors of Cancer Stem Cells. [Related pubchem assays (depositor defined):AID2717, AID2721]; format: functional; settings: Homo sapiens
# [17] = general mammalian cell viability loss – activator set, cherry-pick, cytotoxicity control for miR-122 modulator project, dose response (AID 720690); format: functional, cell-based;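 further: HEK293T human cells scored for general mammalian cytotoxicity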
# [18] = target: T7, Ubiquitin-conjugating enzyme E2 N (Homo sapiens, UniProt P61088); format: functional;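 further: Dose-response confirmation in a TR-FRET assay detecting UBC13-driven polyubiquitin chain formation, inhibition measured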
# T7 sequence (P61088 whole entry): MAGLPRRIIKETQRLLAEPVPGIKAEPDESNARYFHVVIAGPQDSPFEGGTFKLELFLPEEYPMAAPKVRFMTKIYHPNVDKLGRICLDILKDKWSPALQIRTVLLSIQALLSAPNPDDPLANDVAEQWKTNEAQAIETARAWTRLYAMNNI
# [19] = activation of miR-122 Renilla sensor silencing – cell-based, Huh7 psiCHECK-miR122, Renilla luciferase, cherry-picked, dose response (AID 651956); format: functional;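 further: huh7 hepatoma cells stably carrying a psiCHECK-2 miR-122 sensor plasmid; renilla luciferase signal reporting endogenous miR-122 activity after 48 h compound exposure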
# Melanocortin receptor 4 = Melanocortin receptor 4 (Homo sapiens, UniProt P32245); format: functional, cell-based;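 further: Cell-based assay with luminescence read-out, confirmatory dose-response testing for agonist activity of biased ligands at MC4R; human U2OS cells with tagged receptor and beta-arrestin; potency of agonists that increase receptor coupling to beta-arrestin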
# Chain of Melanocortin receptor 4 (P32245 whole entry): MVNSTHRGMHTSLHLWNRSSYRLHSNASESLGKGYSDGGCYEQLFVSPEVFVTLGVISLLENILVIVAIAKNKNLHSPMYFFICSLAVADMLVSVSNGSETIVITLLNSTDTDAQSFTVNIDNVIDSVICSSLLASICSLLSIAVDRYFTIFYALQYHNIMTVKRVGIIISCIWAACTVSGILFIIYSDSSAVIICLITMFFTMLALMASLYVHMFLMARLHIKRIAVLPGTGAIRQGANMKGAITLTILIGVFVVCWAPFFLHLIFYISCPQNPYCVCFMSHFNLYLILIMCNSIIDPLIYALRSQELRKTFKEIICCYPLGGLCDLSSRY
# [20] = general mammalian cell viability loss – inhibitor set, cherry-pick, set 2, cytotoxicity control for miR-122 modulator project, dose response (AID 720697); format: functional, cell-based
# [21] = viability of HCT116 lacking mutant beta-catenin – cell-based, human colon tumor, dose response (AID 1045); format: functional;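 further: HCT116 colon tumor cells with beta catenin knocked out; cells exposed to compound for 60 hours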
smiles,measurement,setting,value
Oc1ccc2ccccc2c1/C=N\C12CN3CCN(CN(C3)C1)C2,IC50,[1],27.6 µM (active)
same,IC50,Genome polyprotein,53.9 µM (active)
CN(C)C(=O)CSc1nnc([C@@H](N)Cc2ccccc2)o1,IC50,Prothrombin,> 50 µM (not active)
same,IC50,Coagulation factor XII,> 50 µM (inactive)
COC(=O)Cn1c(=O)c(C)nc2ccccc21,EC50,[2],> 50 µM (active)
Cc1c(C(=O)N/N=C/c2ccc(-c3ccccc3[N+](=O)[O-])o2)sc(N)c1C#N,IC50,[1],> 50 µM (not active)
same,IC50,[3],3.78 µM (active)
O=C(NCc1cccs1)C1CC(c2ccccc2O)=NO1 (stereo unspecified),IC50,[4],> 100 µM (inactive)
same,IC50,[5],> 100 µM (not active)
C=C(C)C(=O)O[C@H]1C/C(C)=C\C(=O)/C=C(\C)[C@H](O)[C@@H]2OC(=O)C(=C)[C@@H]21,CC50,[6],3.71 µM (active)
same,AC50,[7],11.1 µM (active)
same,AC50,[8],6.81 µM (active)
same,EC50,[9],8.1 µM (active)
same,IC50,[10],> 80 µM (inactive)
same,AC50,[11],3.02 µM (active)
same,AC50,INS1,8.02 µM (active)
c1ccc(-c2ncc3c(ccc4ccccc43)n2)cc1,EC50,[12],> 67.6 µM (inactive)
same,IC50,[13],> 67.6 µM (inactive)
CC(=O)Nc1ccc(N2C(=O)CC(Sc3nc4ccccc4s3)C2=O)cc1 (stereo unspecified),EC50,[12],> 67.5 µM (inactive)
same,IC50,[13],> 67.5 µM (inactive)
CN(Cc1ccccc1O)CC1CCCN(CCc2ccc(Cl)cc2)C1 (stereo unspecified),EC50,[2],> 50 µM (active)
COc1ccc(-n2c(SCC(=O)Nc3cc(C)on3)nc3c(c2=O)SCC3)cc1,IC50,[4],> 100 µM (inactive)
same,IC50,[5],> 100 µM (not active)
same,AC50,HEK293,98.6 µM (active)
CCN(Cc1ccccc1)Cc1nnnn1Cc1ccccc1,CC50,[14],> 40 µM (active)
COc1ccc(-c2csc(NC(C)c3nc4cc(Cl)c(Cl)cc4n3CCCO)n2)cc1 (stereo unspecified),CC50,[6],15.4 µM (active)
CCN1C(=O)c2ccccc2[S+]([O-])c2ccc(C(=O)N3CCCCCC3)cc21 (stereo unspecified),IC50,[4],> 100 µM (inactive)
same,IC50,[5],> 100 µM (not active)
CCCCCCOc1ccc(/C(C)=N/NC2=NCCN2)cc1,AC50,[15],23 µM (active)
same,AC50,[16],3.05 µM (active)
same,AC50,[17],16.3 µM (active)
same,IC50,[18],> 20 µM (inactive)
same,AC50,[19],22.2 µM (active)
same,EC50,Melanocortin receptor 4,> 89.1 µM (inactive)
same,AC50,[20],16 µM (active)
CCC1C/C(=C/c2ccco2)C(=O)/C(=C/c2ccco2)C1 (stereo unspecified),CC50,[14],> 40 µM (active)
CC(C)(C)OC(=O)N1CCC(NC(=O)c2[nH]cnc2C(=O)Nc2ccccc2)CC1,CC50,[6],> 40 µM (active)
COCc1n[nH]c2c1C(c1c(F)cccc1Cl)C(C#N)=C(N)O2 (stereo unspecified),EC50,[2],> 50 µM (active)
Cc1c(NC(=O)CSc2nc3ccccc3s2)c(=O)n(-c2ccccc2)n1C,IC50,Coagulation factor XII,> 50 µM (inactive)
CCOC(=O)c1cc2sccc2n1CC(=O)N1c2ccccc2CC1C (stereo unspecified),EC50,[21],445 µM (active)
same,IC50,Coagulation factor XII,> 50 µM (inactive)
